Test results published in ChEMBL document CHEMBL2203115, “Design and synthesis of procollagen C-proteinase inhibitors” (Bioorg Med Chem Lett, 2012).
Peptide text beside a SMILES is read from it. * marks the point of attachment. NHOH = ON*

What follows are compounds tested against T1, Interstitial collagenase (Homo sapiens, UniProt P03956) (assay: Inhibition of para-amino phenylmercuric acetate-activated MMP1 using Mca-P-L-G-L-Dap(Dnp)-A-R-NH2 as substrate after 1 hr by fluorescence assay).
T1 sequence (P03956 whole entry): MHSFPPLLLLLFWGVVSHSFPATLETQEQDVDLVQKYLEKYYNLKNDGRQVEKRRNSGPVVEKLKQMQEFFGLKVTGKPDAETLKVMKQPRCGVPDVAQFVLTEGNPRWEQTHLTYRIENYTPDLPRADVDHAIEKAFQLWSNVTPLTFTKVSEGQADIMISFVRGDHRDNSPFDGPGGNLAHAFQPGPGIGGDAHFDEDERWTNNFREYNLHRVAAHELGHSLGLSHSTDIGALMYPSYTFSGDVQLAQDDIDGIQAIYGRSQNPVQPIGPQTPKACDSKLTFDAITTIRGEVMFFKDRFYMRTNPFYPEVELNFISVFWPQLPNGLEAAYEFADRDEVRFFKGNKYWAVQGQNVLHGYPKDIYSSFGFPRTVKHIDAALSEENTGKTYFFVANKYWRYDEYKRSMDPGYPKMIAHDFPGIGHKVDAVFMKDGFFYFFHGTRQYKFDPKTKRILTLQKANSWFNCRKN

`COc1ccc(CCN(CCC(=O)NO)S(=O)(=O)c2ccc(NC(=O)NCc3ccccc3)cc2)cc1` and `COc1ccc(CCN(CCC(=O)NO)S(=O)(=O)c2ccc(/C(N)=N/O)cc2)cc1` cannot be ordered by IC50: greater than 25 µM for the first, greater than 25 µM for the second.

The compounds below were run against Matrix metalloproteinase-9 (Homo sapiens, UniProt P14780) (assay: Inhibition of para-amino phenylmercuric acetate-activated MMP9 using Mca-P-L-G-L-Dap(Dnp)-A-R-NH2 as substrate after 1 hr by fluorescence assay).
Sequence of Matrix metalloproteinase-9 (P14780 whole entry): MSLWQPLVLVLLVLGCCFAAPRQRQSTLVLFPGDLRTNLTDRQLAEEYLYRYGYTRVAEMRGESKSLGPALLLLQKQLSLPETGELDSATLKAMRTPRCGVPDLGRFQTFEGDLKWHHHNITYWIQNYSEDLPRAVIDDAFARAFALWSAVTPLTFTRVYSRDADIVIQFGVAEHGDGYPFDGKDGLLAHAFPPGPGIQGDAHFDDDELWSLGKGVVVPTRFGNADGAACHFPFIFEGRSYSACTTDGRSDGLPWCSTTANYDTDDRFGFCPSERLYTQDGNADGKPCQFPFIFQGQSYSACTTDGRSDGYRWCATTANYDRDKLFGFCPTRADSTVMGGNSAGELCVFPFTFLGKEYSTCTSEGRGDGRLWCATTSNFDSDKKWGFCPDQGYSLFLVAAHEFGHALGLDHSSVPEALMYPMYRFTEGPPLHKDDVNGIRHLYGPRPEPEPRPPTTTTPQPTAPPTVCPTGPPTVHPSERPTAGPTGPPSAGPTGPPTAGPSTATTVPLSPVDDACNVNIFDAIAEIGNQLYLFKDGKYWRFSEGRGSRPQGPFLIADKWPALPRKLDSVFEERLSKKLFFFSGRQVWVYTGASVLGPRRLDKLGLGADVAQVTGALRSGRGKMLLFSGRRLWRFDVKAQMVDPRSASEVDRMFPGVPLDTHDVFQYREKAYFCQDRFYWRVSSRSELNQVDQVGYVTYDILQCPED

Compared with `COc1ccc(S(=O)(=O)N(CC(=O)NO)Cc2ccc(Cl)cc2)cc1`, `COc1ccc(CCN(CCC(=O)NO)S(=O)(=O)c2ccc(S(C)(=O)=O)cc2)cc1` is higher in IC50: 0.05 µM for the first, greater than 6 µM for the second.

`COc1ccc(CCN(CCC(=O)NO)S(=O)(=O)c2ccc(NC(=O)NCc3ccccc3)cc2)cc1` and `COc1ccc(CCN(CCC(=O)NO)S(=O)(=O)c2ccc(/C(N)=N/O)cc2)cc1` cannot be ordered by IC50: greater than 25 µM for the first, greater than 25 µM for the second.

The compounds below were run against T2, Bone morphogenetic protein 1 (Homo sapiens, UniProt P13497) (assay: Inhibition of PCP after 1 hr by fluorescence assay).
T2 sequence (P13497 whole entry): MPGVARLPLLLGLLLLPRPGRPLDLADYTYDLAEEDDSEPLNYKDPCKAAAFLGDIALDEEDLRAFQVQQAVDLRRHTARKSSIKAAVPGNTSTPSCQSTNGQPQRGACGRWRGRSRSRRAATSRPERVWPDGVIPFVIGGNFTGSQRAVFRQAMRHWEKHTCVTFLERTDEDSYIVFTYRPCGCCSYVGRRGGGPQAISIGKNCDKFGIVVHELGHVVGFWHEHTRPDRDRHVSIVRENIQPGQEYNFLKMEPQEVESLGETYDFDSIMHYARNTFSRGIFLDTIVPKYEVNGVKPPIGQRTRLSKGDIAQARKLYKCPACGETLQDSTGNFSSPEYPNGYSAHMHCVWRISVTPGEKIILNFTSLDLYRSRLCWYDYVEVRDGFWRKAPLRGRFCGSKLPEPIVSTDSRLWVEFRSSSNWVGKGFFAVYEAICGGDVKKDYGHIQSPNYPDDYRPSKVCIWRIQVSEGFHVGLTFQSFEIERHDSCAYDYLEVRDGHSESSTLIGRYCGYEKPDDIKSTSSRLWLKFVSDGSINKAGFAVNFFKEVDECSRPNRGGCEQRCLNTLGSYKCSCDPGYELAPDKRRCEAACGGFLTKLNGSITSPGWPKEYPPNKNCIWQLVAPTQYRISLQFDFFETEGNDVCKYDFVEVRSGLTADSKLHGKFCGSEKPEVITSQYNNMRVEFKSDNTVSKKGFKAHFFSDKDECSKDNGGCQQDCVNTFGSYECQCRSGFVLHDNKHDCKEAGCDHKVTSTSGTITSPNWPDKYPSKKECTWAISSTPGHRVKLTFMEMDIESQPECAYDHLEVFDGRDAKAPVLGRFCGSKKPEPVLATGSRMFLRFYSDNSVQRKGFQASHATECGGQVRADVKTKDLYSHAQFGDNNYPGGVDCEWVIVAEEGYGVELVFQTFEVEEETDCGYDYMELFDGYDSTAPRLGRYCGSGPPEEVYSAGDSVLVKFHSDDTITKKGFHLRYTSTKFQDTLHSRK

First: CCCCS(=O)(=O)N(CCc1ccc(OC)cc1)CC(=O)NO
Second: CCCCS(=O)(=O)N(CCC(=O)NO)CCc1ccc(OC)cc1
The IC50 of the first is 8.2-fold higher: 55 µM for the first, 6.7 µM for the second.

Compared with `COc1ccc(S(=O)(=O)N(CCC(=O)NO)CCc2ccccn2)cc1`, `COc1ccc(S(=O)(=O)N(CCC(=O)NO)Cc2ccccc2)cc1` is 1.8-fold lower in IC50: 8.1 µM for the first, 4.5 µM for the second. The second is the more potent here.

First: O=C(CCN(CCc1ccccc1)S(=O)(=O)c1ccccc1)NO
Second: O=C(CCN(CCc1ccccc1)S(=O)(=O)c1ccc(C(=O)O)cc1)NO
The IC50 of the first is 2.2-fold higher: 2.2 µM for the first, 1 µM for the second. The second is the more potent here.

Going from `COc1ccc(S(=O)(=O)N(CC(=O)NO)Cc2ccc(Cl)cc2)cc1` to `COc1ccc(S(=O)(=O)N(CC(=O)NO)Cc2ccc(F)cc2)cc1`, the IC50 rises from 19 µM to 34 µM (1.8-fold). The first is the more potent here.

`COc1ccc(CCN(CCS)S(=O)(=O)c2ccc(S(C)(=O)=O)cc2)cc1` and `COc1ccc(CCN(CCCS)S(=O)(=O)c2ccc(S(C)(=O)=O)cc2)cc1` are within 1.5-fold of each other in IC50: 9.4 µM for the first, 14 µM for the second.

Going from `COc1ccc(S(=O)(=O)N(CCC(=O)NO)CC2CCCCC2)cc1` to `CCC(C)N(CCC(=O)NO)S(=O)(=O)c1ccc(OC)cc1` (stereo not given), the IC50 rises from 1 µM to 1.7 µM (1.7-fold). The first is the more potent here.

First: COc1ccc(CCN(CCN(O)C(N)=O)S(=O)(=O)c2ccc(S(C)(=O)=O)cc2)cc1
Second: COc1ccc(CCN(CCC(=O)CS)S(=O)(=O)c2ccc(S(C)(=O)=O)cc2)cc1
The IC50 of the first is higher: greater than 100 µM for the first, 13 µM for the second. The second is the more potent here.

First: COc1ccc(S(=O)(=O)N(Cc2ccccc2)[C@@H](CC(=O)O)C(=O)NO)cc1
Second: COc1ccc(S(=O)(=O)N(CC(=O)NO)Cc2ccccc2)cc1
The IC50 of the first is 5.7-fold lower: 2.8 µM for the first, 16 µM for the second. The first is the more potent here.

Compared with `COc1ccc(S(=O)(=O)N(CCC(=O)NO)CCc2ccc(OC)c(OC)c2)cc1`, `COc1ccc(S(=O)(=O)N(CCC(=O)NO)CCc2cccc(OC)c2)cc1` is 18-fold lower in IC50: 42 µM for the first, 2.3 µM for the second. The second is the more potent here.

`CC(=O)N1CCC[C@H]1C(=O)N[C@@H](Cc1ccc(O)cc1)C(=O)N[C@@H](Cc1ccc(O)cc1)C(=O)NCC(=O)NO` (Ac-PYYG-{NHOH}) and `CNC(=O)[C@H](CCC(=O)O)NC(=O)C(CC(=O)O)CC(=O)NO` (mixture of isomers) are within 1.5-fold of each other in IC50: 42 µM for the first, 40 µM for the second.

Compared with `COc1ccc(S(=O)(=O)N(CCC(=O)NO)CCc2ccc([N+](=O)[O-])cc2)cc1`, `COc1ccc(S(=O)(=O)N(CCC(=O)NO)CCc2ccc(S(N)(=O)=O)cc2)cc1` is 2.1-fold higher in IC50: 11 µM for the first, 23 µM for the second. The first is the more potent here.

`COc1ccc(S(=O)(=O)N(CC(=O)NO)C(c2ccccc2)c2ccccc2)cc1` and `COc1ccc(S(=O)(=O)N(CC(=O)NO)c2ccccc2)cc1` are within 1.5-fold of each other in IC50: 102 µM for the first, 69 µM for the second.

First: COc1ccc(S(=O)(=O)N(CC(=O)O)CC(=O)NO)cc1
Second: CCCCOC(=O)CN(CC(=O)NO)S(=O)(=O)c1ccc(OC)cc1
The IC50 of the first is 2.1-fold higher: 345 µM for the first, 167 µM for the second.

First: COc1ccc(S(=O)(=O)N(CC(=O)NO)Cc2ccc(C(F)(F)F)cc2)cc1
Second: COc1ccc(CN(CC(=O)NO)S(=O)(=O)c2ccc(OC)cc2)cc1
The IC50 of the first is 2.3-fold higher: 67 µM for the first, 29 µM for the second. The second is the more potent here.

First: CNC(=O)[C@H](CCC(=O)O)NC(=O)[C@H](CC(=O)O)NCC(=O)O
Second: CNC(=O)[C@H](CCC(=O)O)NC(=O)C(CS)CC(=O)O (stereo not given in full)
The IC50 of the first is 18-fold higher: 1500 µM for the first, 85 µM for the second. The second is the more potent here.

`CC(C)(C)c1ccc(S(=O)(=O)N(CCC(=O)NO)CCc2ccccc2)cc1` and `COc1ccc(S(=O)(=O)N(CCc2ccccc2)CC(=O)NO)cc1` are within 1.5-fold of each other in IC50: 17 µM for the first, 18 µM for the second.

Compared with `COc1ccc(N(CCC(=O)NO)S(=O)(=O)c2ccc(OC)cc2)cc1`, `COc1ccc(N(CC(=O)NO)S(=O)(=O)c2ccc(OC)cc2)cc1` is 43-fold higher in IC50: 1.7 µM for the first, 73 µM for the second.

`CCC(C)N(CC(=O)NO)S(=O)(=O)c1ccc(OC)cc1` (stereo not given) and `COc1ccc(S(=O)(=O)NCCC(=O)NO)cc1` are within 1.5-fold of each other in IC50: 112 µM for the first, 166 µM for the second.

Going from `COc1ccc(S(=O)(=O)N(CCCC(=O)NO)c2ccccc2)cc1` to `COc1ccc(S(=O)(=O)N(CCC(=O)NO)c2ccccc2)cc1`, the IC50 falls from 28 µM to 3 µM (9.3-fold). The second is the more potent here.

`COc1ccc(S(=O)(=O)N[C@@H](CC(=O)O)C(=O)NO)cc1` and `COc1ccc(S(=O)(=O)N(CCCC(=O)NO)Cc2ccccc2)cc1` are the same in IC50: 10 µM for the first, 10 µM for the second.

`COc1ccc(CCN(CCC(=O)NO)S(=O)(=O)c2ccccc2/C(N)=N\O)cc1` and `COc1ccc(CCN(CCC(=O)NO)S(=O)(=O)c2ccccc2S(C)(=O)=O)cc1` are within 1.5-fold of each other in IC50: 7.1 µM for the first, 9.1 µM for the second.

Going from `COc1ccc(CCN(CC(=O)NO)S(=O)(=O)c2ccc(OC)cc2)cc1` to `COc1ccc(CCN(CC(=O)CS)S(=O)(=O)c2ccc(S(C)(=O)=O)cc2)cc1`, the IC50 falls from 18 µM to 4.7 µM (3.8-fold). The second is the more potent here.

The compounds below were run against 72 kDa type IV collagenase (Homo sapiens, UniProt P08253) (assay: Inhibition of para-amino phenylmercuric acetate-activated MMP2 using Mca-P-L-G-L-Dap(Dnp)-A-R-NH2 as substrate after 1 hr by fluorescence assay).
Sequence of 72 kDa type IV collagenase (P08253 whole entry): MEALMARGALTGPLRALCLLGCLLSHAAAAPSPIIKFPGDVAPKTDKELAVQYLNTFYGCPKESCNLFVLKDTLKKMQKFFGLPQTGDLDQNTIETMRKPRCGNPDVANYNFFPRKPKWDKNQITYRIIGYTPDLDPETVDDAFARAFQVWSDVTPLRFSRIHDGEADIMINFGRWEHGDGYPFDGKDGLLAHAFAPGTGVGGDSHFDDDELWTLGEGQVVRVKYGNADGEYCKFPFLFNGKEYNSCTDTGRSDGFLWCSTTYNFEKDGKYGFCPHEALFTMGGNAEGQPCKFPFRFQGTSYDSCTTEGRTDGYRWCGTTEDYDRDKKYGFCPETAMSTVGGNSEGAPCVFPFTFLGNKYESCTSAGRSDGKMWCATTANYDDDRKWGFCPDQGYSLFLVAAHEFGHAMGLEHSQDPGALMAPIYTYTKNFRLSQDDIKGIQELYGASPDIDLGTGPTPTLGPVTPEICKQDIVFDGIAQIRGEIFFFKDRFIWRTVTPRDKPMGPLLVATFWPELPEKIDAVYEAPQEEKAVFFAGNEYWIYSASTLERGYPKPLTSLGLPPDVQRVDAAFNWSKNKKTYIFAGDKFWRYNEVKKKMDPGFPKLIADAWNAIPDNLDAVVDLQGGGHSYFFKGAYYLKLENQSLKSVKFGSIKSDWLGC

Compared with `COc1ccc(S(=O)(=O)N(CC(=O)NO)Cc2ccc(Cl)cc2)cc1`, `COc1ccc(CCN(CCC(=O)NO)S(=O)(=O)c2ccc(S(C)(=O)=O)cc2)cc1` is higher in IC50: 0.14 µM for the first, greater than 6 µM for the second. The first is the more potent here.

`COc1ccc(CCN(CCC(=O)NO)S(=O)(=O)c2ccc(NC(=O)NCc3ccccc3)cc2)cc1` and `COc1ccc(CCN(CCC(=O)NO)S(=O)(=O)c2ccc(/C(N)=N/O)cc2)cc1` cannot be ordered by IC50: greater than 25 µM for the first, greater than 25 µM for the second.

Each compound was assayed on 3T3-L1 (assay: Cytotoxicity against mouse 3T3L1 cells).
Assay type: cell-based

With `COc1ccc(CCN(CCC(=O)NO)S(=O)(=O)c2ccc(/C(N)=N/O)cc2)cc1` the IC50 was 150 µM.
